Key:
[1] = target: T1, P. falciparum Hsp90 (PfHsp90, PF07_0029) (Plasmodium falciparum, UniProt Q8IC05); test: SPR (Biacore X), positive control; also full-length ATPase inhibition, […]; type: binding; design: gene PF3D7_0708400; full length also tested in ATPase assay
Target sequence in this assay (Q8IC05 entry or part of it): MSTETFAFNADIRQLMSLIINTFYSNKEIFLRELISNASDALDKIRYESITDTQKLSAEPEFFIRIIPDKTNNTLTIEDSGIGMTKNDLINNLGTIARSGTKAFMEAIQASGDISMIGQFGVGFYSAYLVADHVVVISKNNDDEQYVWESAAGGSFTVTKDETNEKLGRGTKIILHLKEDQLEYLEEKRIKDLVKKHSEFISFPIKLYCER

[2] = target: T1, P. falciparum Hsp90 (PfHsp90, PF07_0029); test: coupled LDH/NADH ATPase assay, positive control; type: biochemical; design: gene PF3D7_0708400; full-length PfHsp90
Target sequence in this assay (Q8IC05 1-745): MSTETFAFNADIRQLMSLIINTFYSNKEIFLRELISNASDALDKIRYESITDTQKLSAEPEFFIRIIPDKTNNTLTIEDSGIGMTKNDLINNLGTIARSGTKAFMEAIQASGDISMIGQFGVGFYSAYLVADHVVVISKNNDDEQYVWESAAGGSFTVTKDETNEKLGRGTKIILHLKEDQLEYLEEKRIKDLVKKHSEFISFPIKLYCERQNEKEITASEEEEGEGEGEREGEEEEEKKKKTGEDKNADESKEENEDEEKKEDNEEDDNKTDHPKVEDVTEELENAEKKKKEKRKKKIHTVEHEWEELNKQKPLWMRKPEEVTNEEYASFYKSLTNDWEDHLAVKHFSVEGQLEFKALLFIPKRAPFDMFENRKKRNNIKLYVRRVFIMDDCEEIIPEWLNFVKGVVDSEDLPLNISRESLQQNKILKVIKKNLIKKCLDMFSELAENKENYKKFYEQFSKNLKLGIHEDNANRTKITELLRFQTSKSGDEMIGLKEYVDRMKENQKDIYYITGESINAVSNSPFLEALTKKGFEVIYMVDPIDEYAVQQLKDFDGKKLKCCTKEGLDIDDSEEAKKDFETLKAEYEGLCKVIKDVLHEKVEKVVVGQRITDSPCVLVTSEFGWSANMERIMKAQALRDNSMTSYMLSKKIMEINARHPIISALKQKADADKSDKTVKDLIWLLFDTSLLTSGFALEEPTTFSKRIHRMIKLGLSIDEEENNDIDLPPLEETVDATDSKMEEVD

Structure (SMILES) | Kd [1] [µM] | IC50 [2] [nM]
C=CCNC1=C2C[C@@H](C)C[C@H](OC)[C@H](O)[C@@H](C)/C=C(\C)[C@H](OC(N)=O)[C@@H](OC)/C=C\C=C(/C)C(=O)NC(=CC1=O)C2=O [17-AAG] | 105 ± 0.33 | 
C[C@@H]1C[C@H]2O[C@@H]2/C=C\C=C\C(=O)Cc2c(Cl)c(O)cc(O)c2C(=O)O1 [radicicol] |  | 144

— PMC3787104, “A Purine Analog Synergizes with Chloroquine (CQ) by Targeting Plasmodium falciparum Hsp90 (PfHsp90)” (PLoS ONE, 2013)
